Measured values from ChEMBL document CHEMBL4680334, “Fluorescent image-based high-content screening of extracts of natural resources for cell cycle inhibitors and identification of a new sesquiterpene quinone from the sponge, Dactylospongia metachromia” (Bioorg Med Chem, 2021).
Activity calls are given as the source filed them. No cut-off for these calls is given here.

Tests used:
HeLa [1] = assay: Cytotoxicity against human HeLa cells harboring Fucci2 assessed as reduction in cell growth incubated for 3 days by MTT assay; type: functional, cell-based; details: 72 h
HeLa [2] = assay: Inhibition of cell cycle progression in human HeLa cells harboring Fucci2 assessed as cell cycle arrest at S phase at 2 times of IC50 incubated for 2 days by fluorescence microscopic analysis; type: functional, cell-based; details: time 2.0 day
HeLa [3] = assay: Inhibition of cell cycle progression in human HeLa cells harboring Fucci2 assessed as cell cycle arrest at G2/M phase at 2 times of IC50 incubated for 2 days by fluorescence microscopic analysis; type: functional, cell-based; details: time 2.0 day
HeLa [4] = assay: Induction of cell cycle arrest in human HeLa cells assessed as accumulation at G1 phase at 15 uM incubated for 1 day by propidium iodide staining based flow cytometry analysis (reference value: 59.7 %); type: functional
HeLa [5] = assay: Induction of cell cycle arrest in human HeLa cells assessed as accumulation at S phase at 15 uM incubated for 1 day by propidium iodide staining based flow cytometry analysis (reference value: 26.1 %); type: functional
HeLa [6] = assay: Induction of cell cycle arrest in human HeLa cells assessed as accumulation in G2/M phase at 15 uM incubated for 1 day by propidium iodide staining based flow cytometry analysis (reference value: 14.2 %); type: functional

Row | SMILES | IC50 (HeLa [1]) [µM] | inhibition (HeLa [2]) | inhibition (HeLa [3]) | Activity (HeLa [4]) [%] | Activity (HeLa [5]) [%] | Activity (HeLa [6]) [%]
1 | CC1=CCC[C@H]2[C@](C)(CC3=C(O)C(=O)C=C(N)C3=O)[C@@H](C)CC[C@]12C | 18 | Active | Active | 27.2 | 46.5 | 26.3
2 | COC(=O)c1ccc(O)c(C[C@]2(C)[C@@H](C)CC[C@]3(C)C(C)=CCC[C@@H]23)c1 | 13 | inactive | inactive | – | – | –
3 | CC1=CCC[C@H]2[C@](C)(CC3=C(O)C(=O)C=C(NCCC[S+](C)[O-])C3=O)[C@@H](C)CC[C@]12C (stereo partly drawn) [NAKIJIQUINONE I] | 16 | Active | Active | – | – | –
4 | CC1=CCC[C@H]2[C@](C)(CC3=C(O)C(=O)C=C(NCCC(C)C)C3=O)[C@@H](C)CC[C@]12C [NAKIJIQUINONE N] | 30 | Active | Active | – | – | –
5 | CC1=CCC[C@H]2[C@](C)(CC3=C(O)C(=O)C=C(NCCc4ccccc4)C3=O)[C@@H](C)CC[C@]12C [NAKIJIQUINONE Q] | 36 | Active | Active | – | – | –
